The source of these data is patent US11730717B1, “Melanin-inspired antimicrobial” (The Board of Regents for the Oklahoma Agricultural and …, priority 2020, dated 2023).

In general, MIC refers to the lowest concentration found to suppress growth. One may read the MBC as the lowest tested concentration that kills the bacteria rather than only halting them.

“Also recorded” adds a separate entry of the source. Like-named read-outs stand apart in the source and are kept apart here.

Assay [1] deals with S. aureus SFL64. Put plainly: MIC and MBC values (Table 2). The class given is cell-based, Staphylococcus aureus. As to conditions: repeated determinations.
Assay [2] relates to Staphylococcus aureus SFL 64. Put plainly: Disc agar diffusion assay. Type of assay: cell-based. On the procedure: (§1) As a further test of an embodiment, the antibacterial properties of EIPE-1 were tested across a large panel of organisms. EIPE-1 was dissolved in DMSO, impregnated onto sterile filter paper disks, and DMSO served as the untreated control according to the following procedure: • 1. Prepare a 2.5 μg/μL stock solution of EIPE-1 by micro pipetting 200 μL of DMSO into 2.0 mL Eppendorf Tube containing 0.5 mg of EIPE-1. Dissolve with vortex agitation and store at 4° C. • 2. Use forceps to pick up sterile 6.0 mm blank paper disks. Make sure to touch only one side of disc as lightly as possible. While holding blank paper disc, deliver 10.0 μL of the 2.5 μg/μL EIPE-1 solution by touching the micropipette tip to the center of the blank paper disc. Lean the impregnated disc up against the side of a small sterile glass petri dish. Follow same procedure for DMSO control. Allow disks several hours to dry under flowing sterile air. • 3. Inoculate starter cultures using cells from working culture cultivated on Mueller-Hinton Agar (MHA; Difco Laboratories). Starters consist of ˜20 mL of Mueller-Hinton Broth (MHB; Difco Laboratories) in 125-mL culture flasks. Incubate starter cultures in an Excella E24 Benchtop Incubator Shaker (New Brunswick Scientific Co., Inc., Edison, N.J., USA) at 37° C. and 180 rpm for 15-18 hours. • 4. Pour at least 5.0 mL of NMB into 18-mL Kimax tubes. Use a Pasteur pipette to deliver enough of the starter culture cell suspension to reach an optical density (OD620) of 0.025 (Spectronic™ 20 optical spectrophotometer; Thermo Electron Corp., Madison, Wis., USA). Ensure that both transmittance and absorbance are set to 0.0 using a blank NMB sample. Incubate in rotary shaking incubator at 37° C. and 180 rpm until optical density reaches 0.1. • 5. Deliver 100 μL of test culture to the middle of a small 100 mm×15 mm Petri dish containing ˜⅛ in thickness of MHA. • 6. Saturate a sterile cotton swab with MHB by dipping the cotton swab into KIMAX® tube with MHB and then touch the swab to the north, south, east, and west side of the KIMAX® tube to remove excess broth. • 7. Streak the inoculum as follows: • a. Start in the center and make four straight lines to the 12, 3, 6, and 9 o'clock position on the petri dish. • b. Start at the 12 o'clock position and streak side to side all the way down the plate to the 6 o'clock position. […] Rotate the petri dish 90° and complete the same side to side streak all the way down the petri dish. • d. Complete step c. twice more. • e. Rotate petri dish 45° and complete the side-to-side streak. • f. Rotate petri dish 90° and complete the side-to-side streak. • 8. Use sterile forceps to transfer the DMSO control paper disc onto the agar surface and pat the paper disc down to ensure flush contact. Use the same technique to deliver EIPE-1 paper disc. • 9. Place petri dish at 4° C. for 1.0 hour to allow EIPE-1 diffusion in the absence of growth. • 10. Incubate petri dish at 37° C. for 18 hours. • 11. Observe for zones of growth inhibition surrounding disks. Measure diameter with electronic caliper and subtract 6.0-mm disc diameter. Results • a) Each organism was initially tested once to serve as a screen.
(A growth-free zone around the sample is the usual read-out of agar diffusion tests.)

Assay [3] relates to Serratia fonticola ATCC 9844. Put plainly: Disc agar diffusion assay. Type of assay: cell-based. As to conditions: Group 1: Gram-negative organisms. On the procedure:
as §1

The test system of assay [4] is Serratia marcescens db11. Put plainly: Disc agar diffusion assay. Type of assay: cell-based. As to conditions: Group 1: Gram-negative organisms. Here is the method: as §1
Assay [5] concerns Lactococcus lactis. Put plainly: Disc agar diffusion assay. The class given is cell-based. On the procedure:
as §1

The subject of assay [6] is Escherichia coli ATCC 25922. Put plainly: Disc agar diffusion assay. As to conditions: Group 1: Gram-negative organisms. Type of assay: cell-based. Here is the method:
as §1

Assay [7] relates to Pseudomonas aeruginosa (PA). Nature of the assay: Comparison with Methicillin and Gentamicin, recoverable CFU. Type of assay: cell-based. As to conditions: compared with Methicillin and Gentamicin treatment. On the procedure:
To determine CFUs of PA and MRSA after exposure to DMSO, DBI, EIPE-1, Gentamicin or Methicillin, 10-fold serial dilutions were prepared in 96-well micro plates using multichannel pipettes. For each dilution, 25 ptL of each sample was pipetted onto a plate containing agar medium and incubated for 18 h at 37° C. The number of colonies for each dilution were counted and used to back calculate the number of bacteria per mL (CFU/mL) in each original bacterial culture.
EIPE-1 antimicrobial activity against MRSA and PA was compared to that of Methicillin and Gentamicin treatment. Bacterial cultures were grown, normalized and then exposed to either DBI, DMSO (solvent control), EIPE-1, Methicillin or Gentamicin (FIG. 3). […] This is highly significant and novel as methicillin resistance is a huge problem in hospitals and patient treatment worldwide. […] Gram-negative bacteria like PA have an outer membrane covered with lipopolysaccharides that protects the bacteria from antibiotics, dyes, and detergents from penetrating the bacterial cell.

For assay [8], the system named is MRSA. Nature of the assay: Scanning electron microscopy of treated bacteria. As to conditions: 0.01 mg/mL for 30 minutes. The class given is cell-based, Staphylococcus aureus. On the procedure:
MRSA was grown overnight in 10 mL of LB broth, sub-cultured (5 mL of overnight culture added to 20 mL LB) and grown for 3 h. MRSA culture (300 μL) were removed, placed into a 1.5 mL tube, and treated with DMSO or EIPE-1 (0.01 mg/mL) for 30 minutes. Each sample was placed on glass coverslips (treated with poly-L-lysine) in a 24 well plate and fixed with 2% glutaraldehyde (in 0.1 M sodium cacodylate buffer) for 2 h at room temperature. After fixation, samples were washed three times with 0.1 M sodium cacodylate buffer. Samples were then fixed with 1% osmium tetroxide in water for 1 h at room temperature and were then washed three times with 0.1 M sodium cacodylate buffer. The samples were then dehydrated with an ethanol series (once with 50%, 70%, 90%, 95% and thrice with 100% ethanol). Samples were dried using hexamethyldisilazane (HAMIDS) and then were mounted on stubs. Finally, samples were coated with gold and palladium using an automated sputter coater. Micrographs were acquired using Quanta 600 Scanning electron microscope.
To visualize potential membrane changes, DMSO and EIPE-1 treated MRSA were prepped and visualized by scanning electron microscopy (FIG. 4B). […] FIG. 4(C) contains bar charts that show the percentage of live and dead MRSA from 20 microscopy fields of view.

The subject of assay [9] is S. lactis. Nature of the assay: MIC and MBC values (Table 2). Type of assay: cell-based. The settings on record: repeated determinations.
The test system of assay [10] is E. faecalis. Nature of the assay: MIC and MBC values (Table 2). The class given is cell-based, Enterococcus faecalis. As to conditions: repeated determinations.

Turning to `COC(=O)c1cc2c(C#Cc3ccc(OCCC[N+](C)(C)C)cc3)c(OC)c(OC)c(C#Cc3ccc(OCCC[N+](C)(C)C)cc3)c2n1C` [EIPE-1, 3,3′-((((5,6-dimethoxy-2-(methoxycarbonyl)-1-methyl-1H-indole-4,7-diyl)bis(ethyne-2,1-diyl))bis(4,1-phenylene))bis(oxy))bis(N,N,N-trimethylpropan-1-aminium) iodide], the “MIC” value came to 1.000 µg/mL in assay [1] (S. aureus SFL64); 0.5 µg/mL in assay [1] (Staphylococcus aureus, SFL64, S. aureus SFL64, read-out: MIC); 1 µg/mL in assay [9]; 1 µg/mL in [10] (Enterococcus faecalis, read-out: MIC); 2.000 µg/mL in assay [10]. For the same compound, the “susceptibility group in disc diffusion screen” value is reported as “susceptible” in assay [2] (Group 3: Gram-positive organisms); “resistant” in assay [3]; “resistant” in assay [4]; “resistant” in assay [5] (Group 2: Gram-positive organisms); “resistant” in assay [6]. Besides, the zone of inhibition at 25 µg/disc in [2] (Staphylococcus aureus, SFL64, S. aureus SFL 64, 25 μg per disk, zone minus disk diameter (6.0mm), read-out: Inhibition Zone Diameter (mm) ± SD) was 2.5 ± 1.5 mm; in assay [5] (Lactococcus lactis, L. lactis, 25 μg per disk, zone minus disk diameter (6.0mm), read-out: Inhibition Zone Diameter (mm) ± SD) it was 0.4 ± 0.6 mm. In assay [2] (Staphylococcus aureus, SFL64, S. aureus SFL 64, 250 μg per disk, zone minus disk diameter (6.0mm), read-out: Inhibition Zone Diameter (mm) ± SD), the zone of inhibition at 250 µg/disc worked out at 2.5 ± 0.2 mm. Moreover, the “activity against PA” value in assay [7] is on record as “does not appear to have activity; also recorded: did not display any activity”. For the same compound, in assay [8], the “cell membrane appearance by SEM” value was “cell membrane damage; also recorded: damaged cell membranes”. This compound also had an MBC in assay [9] of 2 µg/mL. Also, the “MBC (μg/mL)” value in [9] is 1.000 µg/mL. Further, the “MIC (μg/mL)” value in assay [9] amounted to 0.500 µg/mL.
